From patent US7432302B2, “Composition containing polyamine transport inhibitor and use thereof” (MediQuest Therapeutics, Inc., priority 2001, dated 2008)
Where two headings read alike, the source gives them in different places.

Key:
[1] = tested on: cell growth in the presence of DFMO; assay: Growth inhibition assay in combination with DFMO; assay type: cell-based; conditions: 144 h; further: 0.5 µM SPD
Protocol: Medias were obtained from Mediatech, Inc. (Hemdon, Va.) and serums from Gibco BRL (Gaithersburg, Md.). 50 U/ml penicillin, 50 μg/ml streptomycin and 2 mM L-glutamine (all from Bio Whittaker, Walkersville, Md.) were included in all cultures. […] When cells were cultured with polyamines or ORI compounds, 1 mM aminoguanidine (AG; Sigma) was included to inhibit serum amine oxidase activity.

[2] = tested on: epidermal ornithine decarboxylase activity; conditions: topical application of 20 μmole 2 hr after the TPA treatment; cited from earlier work
[3] = target: T1, ornithine decarboxylase (ODC) (Homo sapiens, UniProt P11926); conditions: reversible / cofactor-interaction ODC inhibitors, literature; cited from earlier work
T1 sequence (P11926 1-461): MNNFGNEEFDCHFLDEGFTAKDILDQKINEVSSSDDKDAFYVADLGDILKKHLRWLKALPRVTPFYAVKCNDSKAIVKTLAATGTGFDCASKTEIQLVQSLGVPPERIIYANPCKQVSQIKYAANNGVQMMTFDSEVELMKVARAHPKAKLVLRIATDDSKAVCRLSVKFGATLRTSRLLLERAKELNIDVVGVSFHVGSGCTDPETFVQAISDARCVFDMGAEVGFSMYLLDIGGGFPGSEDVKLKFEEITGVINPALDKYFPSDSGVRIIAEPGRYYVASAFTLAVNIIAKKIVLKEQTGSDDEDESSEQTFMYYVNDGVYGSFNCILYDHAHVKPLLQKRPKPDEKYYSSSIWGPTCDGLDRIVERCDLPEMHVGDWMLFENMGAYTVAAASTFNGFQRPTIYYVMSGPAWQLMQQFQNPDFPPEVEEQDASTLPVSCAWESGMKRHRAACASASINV

[4] = tested on: cell growth when given with DFMO; assay: EC50 determined as disclosed in Weeks et al. (cell growth when given with DFMO); assay type: cell-based; conditions: determined as in Weeks et al. Exp Cell Res. 2000
[5] = tested on: hair regrowth; assay: Animal hair growth inhibition assay; assay type: in vivo, mice
[6] = target: T2, spermidine synthase (Homo sapiens, UniProt P19623); conditions: cited from earlier work
T2 sequence (P19623 1-302): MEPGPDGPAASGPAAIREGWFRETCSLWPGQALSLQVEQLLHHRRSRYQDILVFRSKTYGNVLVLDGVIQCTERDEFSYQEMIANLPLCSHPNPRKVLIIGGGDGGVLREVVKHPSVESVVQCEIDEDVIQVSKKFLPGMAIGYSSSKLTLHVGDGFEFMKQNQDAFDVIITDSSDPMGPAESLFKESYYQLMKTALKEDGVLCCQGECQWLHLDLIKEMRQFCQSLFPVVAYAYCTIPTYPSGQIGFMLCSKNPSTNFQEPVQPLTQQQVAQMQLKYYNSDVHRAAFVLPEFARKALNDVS

[7] = tested on: cultured hair follicles; conditions: 50 μM polyamine added to MGBG (10 mM) treated cultured hair follicles; cited from earlier work
[8] = tested on: levels of spermidine or spermine in rat prostate; conditions: oral, 0.02% or 0.1% in drinking water; cited from earlier work
[9] = rats, 10-day treatment with drug in drinking water; cited from earlier work
[10] = tested on: fiber growth; conditions: sheep treated systemically; cited from earlier work
[11] = tested on: L1210 leukemia cells; conditions: cited from earlier work
[12] = tested on: cultured follicles; conditions: cited from earlier work
[13] = compound with DFMO at 2%, 70% ethanol, pH 7.0, applied once a day for 18 days
[14] = no additional biosynthesis inhibitor (None, or antizyme inducer; agmatine 2%), once a day for 18 days
[15] = mutant L1210 cells with greatly reduced polyamine transport activity

## CC(C)(C)CCNCCCC[C@@H](N)C(=O)NCCCNCCCCNCCCN [IVB22]
[1]; read-out: Ave EC50 Value
  EC50: 0.68 µM

## CCCCCCCCCCCCCCCC(=O)NCCCC[C@@H](N)C(=O)NCCCNCCCCNCCCN [IB4]
[1]; read-out: Ave EC50 value
  EC50: 0.084 µM

## CC(C)CNCCCC[C@@H](N)C(=O)NCCCNCCCCNCCCN [IVB23]
[1]; read-out: Ave EC50 Value
  EC50: 1.79 µM

## NCCCNCCCCNCCCNC(=O)[C@H](N)CCCCNC(=O)c1ccccc1 [IB24]
[1]; read-out: Ave EC50 value
  EC50: 30 µM

## CC(C)(C)CC(=O)NCCCC[C@@H](N)C(=O)NCCCNCCCCNCCCN [IB36]
[1]; read-out: Ave EC50 value
  EC50: 27 µM

## CCCCNCCCC[C@@H](N)C(=O)NCCCNCCCCNCCCN [IVB3]
[1]; read-out: Ave EC50 Value
  EC50: 2.19 µM

## NCCCCN [putrescine]
[2]
  inhibition of the induction of ODC activity: 50%

## CCCC(CCC)NCCCC[C@H](N)C(=O)NCCCNCCCCNCCCN [VA26]
[1]; read-out: Ave EC50 Value
  EC50: 4.14 µM

## NC/C=C/C(N)C(=O)O (stereo not drawn) [trans-3-dehydroornithine]
[3]
  Ki: 4.4 µM

## CC(C)(C)CCNCCCC[C@H](N)C(=O)NCCCNCCCCNCCCN [MQT 4]
[4]
  EC50: 1.6 µM
[5]; [13]
  % HGI: 63%
[5]; [14]
  % HGI: 66%

## CCCCCCCCCCCCCCCC(=O)NCCCC[C@H](N)C(=O)NCCCNCCCCNCCCN [MQT 2]
[4]
  EC50: 0.044 µM
[5]; [13]
  % HGI: 97%

## NCCCNCCCCNCCCNC(=O)[C@H](N)CCCCNCc1ccc(-c2ccccc2)cc1 [IVB33]
[1]; read-out: Ave EC50 Value
  EC50: 1.38 µM

## NCCCNCCCCNCCCNC(=O)[C@H](N)CCCCNC(=O)C(c1ccccc1)c1ccccc1 [IB29]
[1]; read-out: Ave EC50 value
  EC50: 2.1 µM

## NCCCON [1-Aminooxy-3-aminopropane]
[3]
  Ki: 0.0032 µM

## CC(C)CC(C)NCCCCC(N)C(=O)NCCCNCCCCNCCCN (single isomer, unassigned) [VA21]
[1]; read-out: Ave EC50 Value
  EC50: 0.65 µM
[1]; read-out: Ave EC50 value
  EC50: 0.65 µM

## NCCCNCCCCNCCCNC(=O)[C@H](N)CCCCNCC1CC2C=CC1C2 (some centres unmarked) [IVB25]
[1]; read-out: Ave EC50 Value
  EC50: 0.89 µM

## NCCCNCCCCNCCCNC(=O)[C@H](N)CCCCNC(=O)CC1CC2CCC1C2 (some centres unmarked) [IB37]
[1]; read-out: Ave EC50 value
  EC50: 41 µM

## NC1CC2CCC1C2 (stereo not drawn) [exo-2-aminonorbornane]
[6]; read-out: IC50
  IC50: 5.5 µM

## C[C@](N)(CCCN)C(=O)O [α-methylornithine]
[3]
  Ki: 40 µM

## NCCCNCCCCNCCCNC(=O)[C@@H](N)CCCCNCC1CCCCC1 [MQT 3]
[4]
  EC50: 0.78 µM
[5]; compound with BHT 0.5%, 70% ethanol, pH 7.0, once a day for 18 days
  % HGI: 68%
[5]; [13]
  % HGI: 93%

## CC(C)[C@@H]1CC[C@@H](C)C[C@H]1OCC(=O)NCCCC[C@@H](N)C(=O)NCCCNCCCCNCCCN [IB38]
[1]; read-out: Ave EC50 value
  EC50: 13 µM

## CCCCCC(=O)NCCCC[C@@H](N)C(=O)NCCCNCCCCNCCCN [IB9]
[1]; read-out: Ave EC50 value
  EC50: 12 µM

## NC1CCCCC1 [cyclohexylamine]
[6]; read-out: IC50
  IC50: 8.1 µM

## NCCCNCCCCNCCCN [spermine]
[7]
  recovery of DNA synthesis: did not overcome the MGBG-mediated inhibition
[2]
  inhibition of the induction of ODC activity: 90%

## CCCCCCCNCCCC[C@@H](N)C(=O)NCCCNCCCCNCCCN [IVB6]
[1]; read-out: Ave EC50 Value
  EC50: 0.89 µM

## NCCCCCCNCCCCCCNCc1ccc(CNCCCN)cc1 [MQT 7]
[5]; [14]
  % HGI: 94%

## C=CCCCN [5-amino-1-pentene]
[6]
  IC50: respectable activity

## CC1CCC(N)CC1 (centres unmarked) [Compound 4MCHA, 4-methylcyclohexylamine]
[8]
  levels of spermidine or spermine in rat prostate: significantly reduced levels
[9]
  LD50: more than 250 mg/kg

## CCCCCN [1-pentylamine]
[6]; read-out: IC50
  IC50: 3.6 µM

## CC(C)(C)CNCCCC[C@@H](N)C(=O)NCCCNCCCCNCCCN [IVB24]
[1]; read-out: Ave EC50 Value
  EC50: 1.32 µM

## NCCCNCCCCNCCCNC(=O)[C@H](N)CCCCNC(=O)c1ccco1 [IB25]
[1]; read-out: Ave EC50 value
  EC50: 10 µM

## NCCC[C@](N)(C(=O)O)C(F)F [DFMO, α-difluoromethylornithine]
[10]
  fiber diameter increase: 14%
  fiber growth decline: 10%
[11]; [15]
  increase in median survival time: 87%
  mice cured: 13 of 40
[11]; parental L1210 cell line
  increase in median survival time: 22%
[5]; biosynthesis inhibitor alone, compound None (DFMO at 2%; Vaniqua 13.9% DFMO)
  % HGI: 28%
[12]; in culture media: DFMO 500 μM, N-butyl-1,3-diaminopropane 50 μM
  effect on the growth of cultured follicles: no effect

## NCCCNC1CCCCC1 [APCHA, N-(3-aminopropyl)cyclohexylamine]
[8]
  levels of spermidine or spermine in rat prostate: significantly reduced levels
[9]
  LD50: > 500 mg/kg

## CCCCN [Compound 1-butylamine, 1-butylamine]
[6]
  Ki: 0.52 µM
[6]; read-out: IC50
  IC50: 3.8 µM

## CCCCCCCC(=O)NCCCC[C@@H](N)C(=O)NCCCNCCCCNCCCN [IB7]
[1]; read-out: Ave EC50 value
  EC50: 13 µM

## NCCCNCCCCNCCCNC(=O)[C@H](N)CCCCNCC1CCCCC1 [IVB27]
[1]; read-out: Ave EC50 Value
  EC50: 0.61 µM

## CCCCCCCCC(=O)NCCCC[C@@H](N)C(=O)NCCCNCCCCNCCCN [IB6]
[1]; read-out: Ave EC50 value
  EC50: 2.2 µM

## CCCCCCCCCCCCCCCCCC(=O)NCCCC[C@@H](N)C(=O)NCCCNCCCCNCCCN [IB2]
[1]; read-out: Ave EC50 value
  EC50: 0.083 µM

## NC1CCC(N)(C(=O)O)CC1 (stereo not drawn) [trans-1,4-diaminocyclohexane-1-carboxylic acid]
[3]
  Ki: 70 µM

## NCCCNCCCCNCCCNC(=O)[C@H](N)CCCCNC(=O)C12CC3CC(CC(C3)C1)C2 [IB30]
[1]; read-out: Ave EC50 value
  EC50: 2 µM

## NCCCCCCNCCCCCNCCN [MQT 8]
[5]; [14]
  % HGI: 53%

## CC(/C=N/NC(=N)N)=N\NC(=N)N [MGBG, methylglycoxal bis(guanylhydrazone)]
[12]
  ED50, inhibition of the growth of cultured follicles: ~5 µM

## CCCCCCNCCCC[C@@H](N)C(=O)NCCCNCCCCNCCCN [IVB5]
[1]; read-out: Ave EC50 Value
  EC50: 0.71 µM

## CC(C)=CCC[C@H](C)CCNCCCC[C@@H](N)C(=O)NCCCNCCCCNCCCN [IVB28]
[1]; read-out: Ave EC50 Value
  EC50: 12.8 µM

## CC(C)C(=O)NCCCC[C@@H](N)C(=O)NCCCNCCCCNCCCN [IB33]
[1]; read-out: Ave EC50 value
  EC50: 8.4 µM

## CCCCCCC(=O)NCCCC[C@@H](N)C(=O)NCCCNCCCCNCCCN [IB8]
[1]; read-out: Ave EC50 value
  EC50: 3.5 µM

## CC(C)CCNCCCC[C@@H](N)C(=O)NCCCNCCCCNCCCN [IVB21]
[1]; read-out: Ave EC50 Value
  EC50: 1.32 µM

## C[C@H]1CC[C@H](N)CC1 [trans-4-methylcyclohexylamine]
[6]; read-out: IC50
  IC50: 1.7 µM

## NCCCCCCCN [1,7-diaminoheptane]
[2]
  inhibition of the induction of ODC activity: 90%

## NCCCC(NN)C(=O)O (stereo not drawn) [α-Hydrazinoornithine]
[3]
  Ki: 0.5 µM

## N=C(N)NCCCCN [Agmatine, reference compound]
[5]; [14]
  % HGI: 30%

## NCCCCNCCCN [spermidine]
[7]
  recovery of DNA synthesis: Complete recovery of DNA synthesis
[2]
  inhibition of the induction of ODC activity: 90%

## CC(C)(C)C(=O)NCCCC[C@@H](N)C(=O)NCCCNCCCCNCCCN [IB34]
[1]; read-out: Ave EC50 value
  EC50: 8.5 µM

## CC(N)CCON (centres unmarked) [1-Aminooxy-3-aminobutane]
[3]
  Ki: 0.0028 µM

## CCCCCCCC(=O)NCCCC[C@H](N)C(=O)NCCCNCCCCNCCCN [MQT 5]
[4]
  EC50: 2.2 µM
[5]; [13]
  % HGI: 47%

## CCCCCCCNCCCC[C@H](N)C(=O)NCCCNCCCCNCCCN [MQT 6]
[4]
  EC50: 0.38 µM
[5]; [13]
  % HGI: 79%

## NCCCNCCCCNCCCNC(=O)[C@H](N)CCCCNC(=O)c1ccc(-c2ccccc2)cc1 [IB26]
[1]; read-out: Ave EC50 value
  EC50: 1.1 µM

## CC(C)[C@@H]1CC[C@@H](C)CC1NCCCC[C@@H](N)C(=O)NCCCNCCCCNCCCN (some centres unmarked) [VB28]
[1]; read-out: Ave EC50 Value
  EC50: 1.45 µM
